Assay results from paper PMC5573404, “An aldo-keto reductase is responsible for Fusarium toxin-degrading activity in a soil Sphingomonas strain” (Scientific Reports, 2017).

Test system: AKR18A1
Assay: HPLC substrate decrease, Michaelis-Menten fit
Type: biochemical, Sphingomonas sp. S3-4
Details: 45 °C

| Compound | Km (reduction of 3-oxo-DON, sodium phosphate pH 7.0, printed unit mM is doubtful, probably a misprint for μM (assays use 0.2 mM NADH)) [mM] | Km (oxidation of DON, glycine-NaOH pH 10.6) [mM] |
| --- | --- | --- |
| NC(=O)C1=CN([C@@H]2O[C@H](COP(=O)(O)OP(=O)(O)OC[C@H]3O[C@@H](n4cnc5c(N)ncnc54)[C@H](O)[C@@H]3O)[C@@H](O)[C@H]2O)C=CC1 [NADH] | 78 ± 28 |  |
| NC(=O)c1ccc[n+]([C@@H]2O[C@H](COP(=O)(O)OP(=O)(O)OC[C@H]3O[C@@H](n4cnc5c(N)ncnc54)[C@H](OP(=O)(O)O)[C@@H]3O)[C@@H](O)[C@H]2O)c1 [NADP^+] |  | 0.48 ± 0.07 |
